Assay results from the supplement of paper PMC11208160.

Experiment: recombinant UMI read abundance after kanamycin selection (control-corrected) (log10(CPM+1)); higher = more efficient recombination; extreme values may be limits of the assay; sequences stand for … in AGTGCAGAGAAAATCGGCCAGTTTTCTCTGCCTGCAGTCCGCATGCCGTGGGACCCCTTGGGTTCTAACCTGTTGCCTAGATTTATGCAGCGGACTGCCTTTCTCCCAAAGTGATAAACCGG…AGGTTGGTTTCACT; site = the 11-nt donor
Summary of the method: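 Two replicates each of selected and unselected plating were used in this pooled Escherichia coli screen of donor and donor-binding-loop pairs for the IS621 bridge recombinase. Selection was with IPTG (0.07 mM) and kanamycin. Counts of recombinant UMIs, amplified across the donor–target junction, were converted to CPM, averaged, scaled by control-derived factors and reported as log10(CPM+1).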
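Note: IS621 bridge recombinase in Escherichia coli cells against a fixed T5 target plasmid.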

Sequence | recombinant UMI read abundance (log10)
GTGCATGCATGGACCGGTTTTCCCGGTAATCCGTATTTGGT (site GTGCAGGCTAC) | 0.384
GTGCATGCATGGACCGGTTTTCCCGGTAATCCGTATTTGGT (site GTGCATACTAC) | 1.69
GTGCATGCATGGACCGGTTTTCCCGGTAATCCGTATTTGGT (site GTGCATCCTAC) | 0.318
GTGCATGCATGGACCGGTTTTCCCGGTAATCCGTATTTGGT (site GTGCATGCTAA) | 0.0107
GTGCATGCATGGACCGGTTTTCCCGGTAATCCGTATTTGGT (site GTGCATGCTAC) | 0.978
GTGCATGCATGGACCGGTTTTCCCGGTAATCCGTATTTGGT (site GTGCATGCTAG) | 0.442
GTGCATGCATGGACCGGTTTTCCCGGTAATCCGTATTTGGT (site GTGCATGCTAT) | 1.47
GTGCATGCATGGACCGGTTTTCCCGGTAATCCGTATTTGGT (site GTGCATGCTCC) | 0.0111
GTGCATGCATGGACCGGTTTTCCCGGTAATCCGTATTTGGT (site GTGCATGCTGC) | 0.451
GTGCATGCATGGACCGGTTTTCCCGGTAATCCGTATTTGGT (site GTGCATGCTTC) | 0.0184
GTGCATGCATGGACCGGTTTTCCCGGTAATCCGTATTTGGT (site GTGCATTCTAC) | 0
GTGCATGCATGGACCGGTTTTCCCGGTAATCCGTATTTGGT (site GTGCCTGCTAC) | 1.15
GTGCATGCATGGACCGGTTTTCCCGGTAATCCGTATTTGGT (site GTGCGTGCTAC) | 0.276
GTGCATGCATGGACCGGTTTTCCCGGTAATCCGTATTTGGT (site GTGCTTGCTAC) | 0.00578
GTGCATGCATGGACCGGTTTTCCCGGTAATCCGTATTTGGT (site GTGGATGCTAC) | 0.00465
GTGCATGCATGGACCGGTTTTCCCGGTAATCCGTATTTGGT (site GTGTATGCTAC) | 0.469
GTGCATGCATGGACCGGTTTTCCCGGTAATCCGTATTTGGT (site GTTCATGCTAC) | 0.448

Sequence | recombinant UMI read abundance (log10)
GTGCATGCATGGACCGGTTTTCCCGGTAATCCGTATTTGGT (site TTGCATGCTAC) | 0.412
GTGCGATCATGGACCGGTTTTCCCGGTAATCCGTATTTGAC (site GTGCGATCTGT) | 1.92
GTGCGGGCATGGACCGGTTTTCCCGGTAATCCGTATTTGGT (site GTGCGGGCTAC) | 0.486
GTGCTACCATGGACCGGTTTTCCCGGTAATCCGTATTTGCT (site ATGCTACCTAG) | 0
GTGCTACCATGGACCGGTTTTCCCGGTAATCCGTATTTGCT (site CTGCTACCTAG) | 0
GTGCTACCATGGACCGGTTTTCCCGGTAATCCGTATTTGCT (site GTGCTACCTAG) | 0.0199
GTGCTACCATGGACCGGTTTTCCCGGTAATCCGTATTTGCT (site TTGCTACCTAG) | 0
GTGCTCTCATGGACCGGTTTTCCCGGTAATCCGTATTTGTG (site GTGCTCTCTCA) | 1.28
GTGCTGCCATGGACCGGTTTTCCCGGTAATCCGTATTTGTG (site GTGCTGCCTCA) | 0.251
GTGCTGGCATGGACCGGTTTTCCCGGTAATCCGTATTTGGT (site GTGCTGGCTAC) | 0.476
GTGCTTGCATGGACCGGTTTTCCCGGTAATCCGTATTTGGT (site GTGCATGCTAC) | 0.0165
GTGCTTGCATGGACCGGTTTTCCCGGTAATCCGTATTTGGT (site GTGCCTGCTAC) | 0.269
GTGCTTGCATGGACCGGTTTTCCCGGTAATCCGTATTTGGT (site GTGCGTGCTAC) | 0.0221
GTGCTTGCATGGACCGGTTTTCCCGGTAATCCGTATTTGGT (site GTGCTTGCTAC) | 1.07
GTGGAAACATGGACCGGTTTTCCCGGTAATCCGTATTTGCA (site ATGGAAACTTG) | 1.42
GTGGAAACATGGACCGGTTTTCCCGGTAATCCGTATTTGCA (site CTGGAAACTTG) | 1.56
GTGGAAACATGGACCGGTTTTCCCGGTAATCCGTATTTGCA (site GTGGAAACTTG) | 2.37
